Earlier results, collected in patent US7019016B2, “NMDA NR2B antagonists for treatment” (Pfizer Inc, priority 2000, dated 2006).

Columns and labels:
[1] = biological target: NMDA receptors comprised of NR1/NR2B subunits (Homo sapiens, UniProt Q05586+Q13224); details: NR1/NR2B subunits compared to NR1/NR2A, NR2C, or NR2D subunits
[2] = animal models of pain perception

Chain of NMDA receptors comprised of NR1/NR2B subunits (Q13224 27-1484, other chains not shown): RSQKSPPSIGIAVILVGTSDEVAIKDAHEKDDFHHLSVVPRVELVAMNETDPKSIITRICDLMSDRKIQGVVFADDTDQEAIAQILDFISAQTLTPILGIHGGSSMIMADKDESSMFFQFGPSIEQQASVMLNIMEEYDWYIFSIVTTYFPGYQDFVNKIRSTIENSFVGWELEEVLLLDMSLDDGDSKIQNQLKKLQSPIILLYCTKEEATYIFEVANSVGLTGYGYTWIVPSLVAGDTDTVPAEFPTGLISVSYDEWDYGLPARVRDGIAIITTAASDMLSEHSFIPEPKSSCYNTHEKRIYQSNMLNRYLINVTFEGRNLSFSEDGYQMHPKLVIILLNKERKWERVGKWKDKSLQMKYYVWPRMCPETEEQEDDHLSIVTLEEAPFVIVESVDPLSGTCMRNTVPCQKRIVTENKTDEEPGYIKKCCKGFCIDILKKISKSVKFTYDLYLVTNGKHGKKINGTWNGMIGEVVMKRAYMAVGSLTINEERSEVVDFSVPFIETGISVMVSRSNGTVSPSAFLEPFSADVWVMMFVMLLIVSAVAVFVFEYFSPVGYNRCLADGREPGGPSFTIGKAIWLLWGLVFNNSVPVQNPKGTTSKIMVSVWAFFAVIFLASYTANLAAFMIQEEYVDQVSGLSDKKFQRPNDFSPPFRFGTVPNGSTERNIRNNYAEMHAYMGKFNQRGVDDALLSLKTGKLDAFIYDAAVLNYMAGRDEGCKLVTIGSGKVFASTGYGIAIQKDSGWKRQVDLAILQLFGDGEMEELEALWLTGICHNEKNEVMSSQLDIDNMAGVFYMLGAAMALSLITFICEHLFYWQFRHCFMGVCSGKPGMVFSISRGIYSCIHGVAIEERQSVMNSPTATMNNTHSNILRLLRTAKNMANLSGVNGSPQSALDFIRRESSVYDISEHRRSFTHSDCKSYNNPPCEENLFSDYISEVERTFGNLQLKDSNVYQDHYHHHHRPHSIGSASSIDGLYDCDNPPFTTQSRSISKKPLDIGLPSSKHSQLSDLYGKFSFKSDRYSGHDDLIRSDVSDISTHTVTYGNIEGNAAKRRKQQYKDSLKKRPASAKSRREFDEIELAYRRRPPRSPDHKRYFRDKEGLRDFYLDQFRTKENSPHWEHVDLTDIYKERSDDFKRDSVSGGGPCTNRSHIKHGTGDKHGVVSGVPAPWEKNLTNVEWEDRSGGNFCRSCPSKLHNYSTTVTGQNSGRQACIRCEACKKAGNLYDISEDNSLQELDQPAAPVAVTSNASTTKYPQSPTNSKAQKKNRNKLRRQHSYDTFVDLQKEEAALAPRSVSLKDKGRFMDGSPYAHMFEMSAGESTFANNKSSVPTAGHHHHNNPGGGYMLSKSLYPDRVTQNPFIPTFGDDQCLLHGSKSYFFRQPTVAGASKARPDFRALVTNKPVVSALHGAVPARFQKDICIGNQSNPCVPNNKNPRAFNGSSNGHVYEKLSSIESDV

blockade of ion current through NMDA receptors [1]: more potent and efficacious
Structure (SMILES): CC(C(O)c1ccc(O)cc1)N1CCC(Cc2ccccc2)CC1 (centres unmarked) [ifenprodil]
analgesic activity [2]: significant analgesic activity
